# Results as given in patent US10376529B2, “Combination of pentacyclic triterpenes and hydroxytyrosol and derivatives thereof” (NATAC BIOTECH, S.L, priority 2013, dated 2019).
# Experiments:
# [1] = system: BV2 microglia; experiment: Nitric oxide production (nitrite, Griess reaction) by LPS plus IFNγ activated BV2 microglia; type: cell-based, mouse; details: LPS 100 ng/mL + IFNγ 50 pg/mL, 24 h
# Description: BV2 cells are a murine microglial-derived cell line widely used as in vitro model for the study of compounds that could modulate microglial mediated neuronal damage. When stimulated, BV2 microglia releases neurotoxic and neuroinflammatory factors such as tumor necrosis factor alpha (TNFα), interleukin 6 (IL6) or nitric oxide (NO).
# The mouse microglial cell line BV-2 was purchased at the Istituto Nazionale per la Ricerca sul Cancro (1ST, Genova, Italy). BV-2 cells were cultured in RPMI-1640 medium (Gibco Invitrogen, Paisley, Scotland, UK) supplemented with 10% FBS and 0.1% penicillin-streptomycin (both from Gibco Invitrogen). Cells were maintained at 37° C. in a 5% CO2 humidified atmosphere. BV-2 microglial cells were seeded at a density of 5×10^4 cells/mL. The following day, cells were treated with the compound of formula (I), the compound of formula (II) or the combination of both compounds, 30 minutes before stimulation with LPS 100 ng/mL and gamma-interferon (IFNγ) 50 pg/mL (both from Sigma-Aldrich, St. Louis, Mo., USA). Control wells contained the same final concentration of vehicle as the compound-containing wells. Culture supernatants were collected 24 h after LPS/IFNγ stimulation and stored at −20° C. until assayed for nitrites analysis.
# Nitrite levels, direct indicators of NO production, were quantified by the Griess reaction. Briefly, 50 μL of culture medium was mixed in a 96-well plate with 25 μL of Griess reagent A (sulfanilamide, Sigma-Aldrich) and 25 μL of reagent B (N-1-naphthyl ethylene-diamine, Sigma-Aldrich). After color development (10 min at 23 to 25° C.), samples were measured at 540 nm on a microplate reader (BioTek ELX800, BioTek Instruments Inc., Vermont, USA). Nitrite concentration was determined from a sodium nitrite standard curve. Values of at least three independent wells from three experiments were calculated.
# The compound of formula (I) was oleanolic acid (4.44 mg/L), the compound of formula (II) was verbascoside (3.12 mg/L), and the combination of the compound of formula (I) and the compound of formula (II) comprised oleanolic acid (4.44 mg/L) and verbascoside (3.12 mg/L). Stock solutions of the compounds (50 mM) were prepared in dimethyl sulfoxide (DMSO, Sigma-Aldrich). Solutions for cell treatment were prepared by diluting stock solutions in culture media immediately before being added to the cells (DMSO concentration: 0.5%). Controls contained the same final concentration of vehicle as the compound-containing wells. Three independent experiments were carried out.
# The procedures for this assay were as described above in Example 2, wherein the compound of formula (I) was maslinic acid (13.20 mg/L), the compound of formula (II) was verbascoside (3.12 mg/L), and the and the combination of the compound of formula (I) and the compound of formula (II) comprised maslinic acid (13.20 mg/L) and verbascoside (3.12 mg/L). Stock solutions of the compounds (50 mM) were prepared in dimethyl sulfoxide (DMSO, Sigma-Aldrich). Solutions for cell treatment were prepared by diluting stock solutions in culture media immediately before being added to the cells (DMSO concentration: 0.5%). Controls contained the same final concentration of vehicle as the compound-containing wells. Three independent experiments were performed.
# [2] = system: NSC34 motor neurons; experiment: NSC34 motor neuron viability (MTT) after hydrogen peroxide insult; type: cell-based, murine; details: H2O2 0.2 mM 30 min, MTT after 24 h
# Text: NSC34 murine spinal cord motor neuron derived cell line was used for this assay. This neuronal cell line is a classical in vitro platform validated for the study of neuroprotective agents. They share a lot of common physiological features with spinal cord neurons such as glutamate sensibility, acetyl choline secretion upon stimulation, functional neurites or characteristic neuronal sensibility and protection mechanisms against neurotoxic agents. Motoneuronal NSC-34 cells (Cedarlane, Burlington, Ontario, Canada) were cultured at 37° C. and 5% CO2 in Dulbecco's modified Eagle's medium (DMEM) supplemented with 10% fetal bovine serum (FBS), 1% penicillin/streptomycin and 0.04 mM L-glutamine. All reagents were purchased at Gibco-Invitrogen. NSC34 cells were seeded at low density (30000 cel/mL) in appropriate tissue culture vessels, 24-well plates for toxicity assays. In the experiments, cells were pretreated for 2 h with the compound of formula (I) (oleanolic acid, 4.44 mg/L), the compound of formula (II) (hydroxytyrosol, 1.54 mg/L) or the combination of the compound of formula (I) (oleanolic acid, 4.44 mg/L) and the compound of formula (II) (hydroxytyrosol, 1.54 mg/L). Stock solutions of the compounds (50 mM) were prepared in dimethylsulfoxide (DMSO, Sigma-Aldrich). Solutions for cell treatment were prepared by diluting stock solutions in culture media immediately before being added to the cells (DMSO concentration: 0.5%). Controls contained the same final concentration of vehicle as the compound-containing wells. Hydrogen peroxide (H2O2) stock was a 30% solution in water (Aldrich). The medium was removed and replaced with a suitable volume of fresh DMEM plus FBS (Gibco). Small hydrogen peroxide aliquots were then added to a final concentration of 0.2 mM. Cells were then exposed for 30 min at 37° C. After this time the medium was removed and replaced with fresh one. The compounds were maintained in the medium for 24 hours. After this 24 hours cell viability was tested using the 3-[4,5-dimethylthiazol-2-yl]-2,5-diphenyltetrazolium bromide (MTT, Sigma) assay. After color development (15 min at 37° C.), samples were measured at 570-620 nm on a microplate reader (BioTek ELX800, BioTek Instruments Inc., Vermont, USA). Mean values of at least three independent wells from three experiments were calculated, and cell survival expressed as percent […] signal compared with untreated control conditions.
# [3] = oleanolic acid 4.44 mg/L alone, listed as OLA
smiles,measurement,setting,value
CC1(C)CC[C@]2(C(=O)O)CC[C@]3(C)C(=CC[C@@H]4[C@@]5(C)C[C@@H](O)[C@H](O)C(C)(C)[C@@H]5CC[C@]43C)[C@@H]2C1 [maslinic acid],BV2 NO reduction (vs. LPS + IFNγ),[1]; maslinic acid 13.20 mg/L alone,18.67%
same,BV2 NO reduction (vs. LPS + IFNγ),"[1]; maslinic acid 13.20 mg/L alone, listed as MSA",18.67%
C[C@@H]1O[C@@H](O[C@@H]2[C@@H](O)[C@H](OCCc3ccc(O)c(O)c3)O[C@H](CO)[C@H]2OC(=O)/C=C/c2ccc(O)c(O)c2)[C@H](O)[C@H](O)[C@H]1O [verbascoside],BV2 NO reduction (vs. LPS + IFNγ),[1]; verbascoside 3.12 mg/L alone,14.67%
same,BV2 NO reduction (vs. LPS + IFNγ),"[1]; verbascoside 3.12 mg/L alone, listed as VRB",14.67%
"OCCc1ccc(O)c(O)c1 [hydroxytyrosol, 2-(3,4-dihydroxyphenyl)ethanol]",NSC34 survival increase (vs. H2O2),[2]; hydroxytyrosol 1.54 mg/L alone,21.67%
same,NSC34 survival increase (vs. H2O2),"[2]; hydroxytyrosol 1.54 mg/L alone, listed as HST",21.67%
CC1(C)CC[C@]2(C(=O)O)CC[C@]3(C)C(=CC[C@@H]4[C@@]5(C)CC[C@H](O)C(C)(C)[C@@H]5CC[C@]43C)[C@@H]2C1 [oleanolic acid],BV2 NO reduction (vs. LPS + IFNγ),[1]; oleanolic acid 4.44 mg/L alone,17.33%
same,BV2 NO reduction (vs. LPS + IFNγ),[1]; [3],17.33%
same,NSC34 survival increase (vs. H2O2),[2]; oleanolic acid 4.44 mg/L alone,5.33%
same,NSC34 survival increase (vs. H2O2),[2]; [3],5.33%
